Results on 20 compounds are retold here after patent US6855730B2, “3-methylidenyl-2-indolinone modulators of protein kinase” (Sugen, Inc., priority 1998, dated 2005).

Usually IC50 stands for the concentration needed to halve the response being measured.

Holding throughout (format): cell-based
For assay [1], the target named is T1, 3T3 cell line genetically engineered to express human EGF-R (Homo sapiens, UniProt P00533).
T1 construct: expressed in transfected cells; host or cells: 3T3
Briefly: EGF-induced BrdU incorporation assay. Conditions: read-out: BrdU EGF driven IC50. The procedure:
The cellular/catalytic assays described herein are performed in an ELISA format. The general procedure is as follows: a compound is introduced to cells expressing the test kinase, either naturally or recombinantly, for a selected period of time after which, if the test kinase is a receptor, a ligand known to activate the receptor is added. The cells are lysed and the lysate is transferred to the wells of an ELISA plate previously coated with a specific antibody recognizing the substrate of the enzymatic phosphorylation reaction. Non-substrate components of the cell lysate are washed away and the amount of phosphorylation on the substrate is detected with an antibody specifically recognizing phosphotyrosine compared with control cells that were not contacted with a test compound. The cellular/biologic assays described herein measure the amount of DNA made in response to activation of a test kinase, which is a general measure of a proliferative response. The general procedure for this assay is as follows: a compound is introduced to cells expressing the test kinase, either naturally or recombinantly, for a selected period of time after which, if the test kinase is a receptor, a ligand known to activate the receptor is added. After incubation at least overnight, a DNA labeling reagent such as Bromodeoxyuridine (BrdU) or 3H-thymidine is added. The amount of labeled DNA is detected with either an anti-BrdU antibody or by measuring radioactivity and is compared to control cells not contacted with a test compound. […]
Protocol • (1) Cells are seeded at 8000 cells/well in 10% CS, 2mM Gin in DMEM, in a 96 well plate. Cells are incubated overnight at 37° C. in 5% CO2. • (2) After 24 hours, the cells are washed with PBS, and then are serum starved in serum free medium (0% CS DMEM with 0.1% BSA) for 24 hours. • (3) On day 3, ligand (EGF, 2 nM, prepared in DMEM with 0.1% BSA) and test compounds are added to the cells simultaneously. The negative control wells receive serum free DMEM with 0.1% BSA only, the positive control cells receive the ligand (EGF) but no test compound. Test compounds are prepared in serum free DMEM with ligand in a 96 well plate, and serially diluted for 7 test concentrations. • (4) After 20 hours of ligand activation, diluted BrdU labeling reagent (1:100 in DMEM, 0.1% BSA) is added and the cells are incubated with BrdU (final concentration=10 μM) for 1.5 hours. • (5) After incubation with labeling reagent, the medium is removed by decanting and tapping the inverted plate on a paper towel. FixDenat solution is added (50 μl/well) and the plates are incubated at room temperature for 45 minutes on a plate shaker. • (6) The FixDenat solution is thoroughly removed by decanting and tapping the inverted plate on a paper towel. Milk is added (5% dehydrated milk in PBS, 200 μl/well) as a blocking solution and the plate is incubated for 30 minutes at room temperature on a plate shaker. • (7) The blocking solution is removed by decanting and the wells are washed once with PBS. Anti-BrdU-POD solution (1:100 dilution in PBS, 1% BSA) is added (100 μ/well) and the plate is incubated for 90 minutes at room temperature on a plate shaker. • (8) The antibody conjugate is thoroughly removed by decanting and rinsing the wells 5 times with PBS, and the plate is dried by inverting and tapping on a paper towel. • (9) TMB substrate solution is added (100 μl/well) and incubated for 20 minutes at room temperature on a plate shaker until color development is sufficient for photometric detection. • (10) The absorbance of the samples are measured at 410 nm (in “dual wavelength” mode with a filter reading at 490 nm, as a reference wavelength) on a Dynatech ELISA plate reader.

Another assay concerns SKOV3 cells. Briefly: SKOV3 growth assay (2% FBS). Conditions: Homo sapiens, SK-OV-3, read-out: SKOV3 growth (2% FBS) IC50.
Another assay relates to A431 cells. Briefly: A431 growth assay (2% FBS). The following applies: Homo sapiens, A-431, read-out: A431 growth (2% FBS) IC50.

In the case of `CC(C)c1cc(/C=C2/C(=O)Nc3ccc(Cl)cc32)cc(C(C)C)c1OCCN1CCOCC1` [Example 24, 5-chloro-3-[3,5-diisopropyl-4-(2-morpholin-4-ylethoxy)-benzylidene]-1,3-dihydroindol-2-one], the IC50 in assay [1] is 7.5 µM; in the assay with SKOV3 cells, 6.5 µM; in the assay with A431 cells, 4.5 µM.
The matching figures for `COc1cc(C)c(/C=C2/C(=O)Nc3ccc(F)cc32)cc1C(C)C` [Example 30, 5-Fluoro-3-(5-isopropyl-4-methoxy-2-methyl-benzylidene)-1,3-dihydroindol-2-one]: 30.3 µM, 16 µM and 9.9 µM.
The matching figures for `CC(=O)Nc1ccc2c(c1)NC(=O)/C2=C/c1ccc(OCCN2CCOCC2)c(-c2cccs2)c1` [Example 40, N-{3-[4-(2-Morpholin-4-ylethoxy)-3-thiophen-2-ylbenzylidene]-2-oxo-2,3-dihydro-1H-indol-6-yl}-acetamide]: 28.6 µM, 22.5 µM and 14.2 µM.
The matching figures for `COc1cc(C)c(/C=C2/C(=O)Nc3ccc(Br)cc32)cc1C(C)C` [Example 36, 5-Bromo-3-(5-isopropyl-4-methoxy-2-methyl-benzylidene)-1,3-dihydroindol-2-one]: 31 µM, > 25 µM and > 25 µM.
For the compound `COc1ccc2c(c1)/C(=C\c1cc(C(C)C)c(OC)c(C(C)C)c1)C(=O)N2` [Example 17, 3-(3,5-Diisopropyl-4-methoxybenzylidene)-5-methoxy-1,3-dihydroindol-2-one], the IC50 in assay [1] came out at 7.4 µM; with SKOV3 cells, 6.1 µM; in the assay with A431 cells it was 4.3 µM.
Take `COc1ccc(/C=C2/C(=O)Nc3ccc(CCN4CCOCC4)cc32)cc1-c1ccsc1` [Example 26, 3-(4-Methoxy-3-thiophen-3-ylbenzylidene)-5-(2-morpholin-4-yl-ethyl)-1,3-dihydroindol-2-one]: the IC50 is > 50 µM in assay [1], 5.4 µM in the assay with SKOV3 cells and 3 µM in the assay with A431 cells.
Take `COc1cc(C)c(C=C2C(=O)Nc3cc(NC(C)=O)ccc32)cc1C(C)C` [Example 27, N-[3-(5-Isopropyl-4-methoxy-2-methyl-benzylidene)-2-oxo-2,3-dihydro-1H-indol-6-yl]-acetamide]: the results for the IC50 (in assay [1]; in the assay with SKOV3 cells; with A431 cells) were 26.8 µM, 5.1 µM and 6.4 µM, respectively.
The matching figures for `COc1cc(C=C2C(=O)Nc3ccccc32)c(-c2ccccc2OC)cc1OC` [Example 49, 3-(4,5,2′-Trimethoxybiphenyl-2-ylmethylene)-1,3-dihydroindol-2-one]: 24.1 µM, 20.6 µM and 20.7 µM.
The matching figures for `COc1ccc(/C=C2/C(=O)Nc3ccccc32)cc1-c1ccsc1` [Example 35, 3-(4-Methoxy-3-thiophen-3-ylbenzylidene)-1,3-dihydroindol-2-one]: 28.1 µM, 16.2 µM and 13.4 µM.
The matching figures for `COc1cc(C)c(C=C2C(=O)Nc3ccccc32)cc1C(C)C` [Example 8, 3-(5-Isopropyl-4-methoxy-2-methylbenzylidene)-1,3-dihydroindol-2-one]: > 50 µM, 0.96 µM and 0.95 µM.
As for `CC1(C)CCc2cc(C=C3C(=O)Nc4ccc(Br)cc43)ccc2O1` (racemic) [Example 34, 5-Bromo-3-(2,2-dimethylchroman-6-ylmethylene)-1,3-dihydroindol-2-one], the IC50 stood at 11 µM in assay [1], 7.6 µM with SKOV3 cells and 4.4 µM in the assay with A431 cells.
The matching figures for `CCOc1cccc(-c2cc(OC)c(OC)cc2/C=C2/C(=O)Nc3ccccc32)c1` [Example 58, 3-(3′-Ethoxy-4,5-dimethoxybiphenyl-2-ylmethylene)-1,3-dihydroindol-2-one]: 27.5 µM, 22 µM and 10.5 µM.
The matching figures for `CC1(C)CCc2cc(/C=C3/C(=O)Nc4ccc(F)cc43)ccc2O1` [Example 23, 3-(2,2-Dimethylchroman-6-ylmethylene)-5-fluoro-1,3-dihydroindol-2-one]: 32.9 µM, 17.8 µM and 14.5 µM.
The matching figures for `COc1c(C(C)C)cc(/C=C2/C(=O)Nc3ccc(C)cc32)cc1C(C)C` [Example 19, 3-(3,5-Diisopropyl-4-methoxybenzylidene)-5-methyl-1,3-dihydroindol-2-one]: 9.3 µM, 5.9 µM and 4.3 µM.
`COc1ccc(/C=C2/C(=O)Nc3ccccc32)cc1C(C)C` [Example 7, 3-(3-Isopropyl-4-methoxybenzylidene)-1,3-dihydroindol-2-one]: the IC50 stood at 24.5 µM in assay [1], 2.5 µM in the assay on SKOV3 cells and 1.2 µM in the assay on A431 cells.
Regarding `COc1c(C)cc(/C=C2/C(=O)Nc3ccc(Cl)cc32)cc1C` [Example 21, 5-Chloro-3-(4-methoxy-3,5-dimethylbenzylidene)-1,3-dihydroindol-2-one], the values for the half-maximal inhibitory concentration (IC50) (in assay [1]; in the assay on SKOV3 cells; with A431 cells) were 8 µM, 13 µM and 15.3 µM, respectively.
On to `COc1c(C(C)C)cc(/C=C2/C(=O)Nc3cc(O)ccc32)cc1C(C)C` [Example 4, 3-(3,5-Diisopropyl-4-methoxybenzylidene)-6-hydroxy-1,3-dihydroindol-2-one], for which the IC50 is 26.6 µM in assay [1], 7 µM in the assay with SKOV3 cells and 5.1 µM with A431 cells.
The matching figures for `CCOc1cccc(-c2cc(C=C3C(=O)Nc4ccccc43)ccc2OC)c1` [Example 46, 3-(3′-Ethoxy-6-methoxybiphenyl-3-ylmethylene)-1,3-dihydroindol-2-one]: 45.7 µM, 7.7 µM and 5.5 µM.
The matching figures for `COc1c(C(C)C)cc(/C=C2/C(=O)Nc3ccc(N)cc32)cc1C(C)C` [Example 20, 5-Amino-3-(3,5-diisopropyl-4-methoxy-benzylidene)-1,3-dihydroindol-2-one]: 30 µM, 35.5 µM and 29.5 µM.
The matching figures for `COc1ccc(/C=C2/C(=O)Nc3ncccc32)cc1C1CCCC1` [Example 47, 3-(3-Cyclopentyl-4-methoxybenzylidene)-1,3-dihydropyrrolo[2,3-b]pyridin-2-one]: > 50 µM, 46.9 µM and 40.4 µM.
